Source: patent US11667675B2, “MASP inhibitory compounds and uses thereof” (Bayer Aktiengesellschaft, priority 2019, dated 2023)
pIC50: −log10 of the molar value. Counter-ions that a name gives are not always drawn. Bridge positions count the residues as written; N and C are the ends. Square brackets hold non-standard residues; d marks the D form. Peptide text beside a SMILES is read from it. PEG9 = NCCOCCOCCOCCOCCOCCOCCOCCOCCOCCC(=O)O; Pro(4-spirocPr) = O=C(O)[C@@H]1CC2(CC2)CN1; tBuAla = CC(C)(C)C[C@H](N)C(=O)O; Pen = CC(C)(S)[C@H](N)C(=O)O; Sar = CNCC(=O)O

Columns and labels:
[1] = tested on: Human C3-[…]; assay: C3 deposition assay, human serum on mannan-coated plates; format: biochemical; settings: average IC50, read-out: Human C3-DEPOSITION SERUM IC50
Experimental: (§1) 3. C3 Deposition Assay (Human, Rat, Mouse, Dog, Mini-Pig)
(§2) The C3 deposition assay was conducted essentially as described (reference). Multi well plates (Greiner-Nunc 384 Maxi Sorp #464718) were coated over night with Mannan from Saccharomyces cerevisiae (Sigma M7504, 10 μg/mL in 0.05 M carbonate-bicarbonate buffer, pH 9.6) at 4° C. Wells were washed three times with TBS and subsequently incubated for 2 hours with 50 μL of 1% bovine serum albumin (BSA) in Tris-buffered saline (TBS) at 37° C. in order to block non-specific binding. After this step and each of the following incubation steps wells were washed three times with C3 wash buffer (TBS; 0.05% Tween 20; 5 mM CaCl2). […] When appropriately developed the color reaction was stopped by addition of 25 μL of stop solution (Sigma S5814) and quantified on a photometer by measuring absorption at a wavelength of 450 nm. Antibodies were diluted in C3 wash buffer supplemented with 0.5% BSA.

[2] = tested on: rat C3-[…]; assay: C3 deposition assay, rat serum on mannan-coated plates; format: biochemical; settings: average IC50
Experimental: as §1, §2

[3] = biological target: T1, human MASP1 (Homo sapiens, UniProt P48740); assay: Biochemical human MASP1 assay (FRET substrate); settings: average IC50
T1 construct: Ig-kappa secretion signal (N, cleaved yes); made in house; host or cells: HEK293 (ATCC No. CRL-1573)
T1 sequence (P48740 297-448): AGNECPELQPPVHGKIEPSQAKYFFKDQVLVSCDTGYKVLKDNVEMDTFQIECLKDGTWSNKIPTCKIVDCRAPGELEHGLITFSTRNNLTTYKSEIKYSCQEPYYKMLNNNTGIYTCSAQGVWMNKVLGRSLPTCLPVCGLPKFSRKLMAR
T1 sequence (P48740 449-699): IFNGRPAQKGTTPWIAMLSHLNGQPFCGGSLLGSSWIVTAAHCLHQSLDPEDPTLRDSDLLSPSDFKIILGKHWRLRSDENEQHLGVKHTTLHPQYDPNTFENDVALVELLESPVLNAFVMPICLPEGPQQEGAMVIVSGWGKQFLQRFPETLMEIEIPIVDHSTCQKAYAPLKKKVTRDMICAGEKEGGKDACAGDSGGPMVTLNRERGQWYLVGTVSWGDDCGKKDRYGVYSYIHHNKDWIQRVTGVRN
Excerpt: (§3) 2.1 Recombinant Expression and Protein Production of Recombinant Human MASP1 and MASP2 Active Proteases.
(§4) The MASP1 or MASP2 expression vectors were transfected into the HEK293 (ATCC No. CRL-1573) cell line using Lipofectamine LTX® Reagent (Thermo-Fischer), as described by the manufacturer. […] The MASP1 and MASP2 proteins were purified from the conditioned media by affinity chromatography on Ni-NTA Superflow resin (Qiagen) as described by the manufacturer.
2.2 Biochemical Human MASP1 Assay
(§5) Recombinant human MASP1 enzyme produced in the HEK 293 cells was diluted in the reaction buffer (50 mM HEPES pH 8,0; 100 mM NaCl; 0.01% CHAPS; 0.5 mM Gluthathione) to the concentration of 20 nM and 25 μl was transferred into each single well of 384-well white microtiter plate (Greiner Bio One 781075). 1 μl of the inhibitor compound solution (dissolved in DMSO, at the corresponding concentration) or pure DMSO as a control was added to the same wells. […] The microtiter plate was incubated for 60-120 min at the temperature of 32 C. The increase of fluorescence intensity was measured in appropriate fluorescence plate reader (e.g. TECAN Ultra) using excitation wavelength of 320 nm and emission wavelength of 420 nm. IC50 values were calculated from percentage of inhibition of human MASP1 activity as a function of test compound concentration.

[4] = biological target: T2, rat MASP1 (Rattus norvegicus, UniProt Q8CHN8); assay: Biochemical rat MASP1 assay (FRET substrate); settings: average IC50; recombinant rat MASP1, FRET substrate
T2 construct: Ig-kappa secretion signal (N, cleaved yes); made in house; host or cells: HEK293 (ATCC No. CRL-1573)
T2 sequence (Q8CHN8 302-453 limits assumed): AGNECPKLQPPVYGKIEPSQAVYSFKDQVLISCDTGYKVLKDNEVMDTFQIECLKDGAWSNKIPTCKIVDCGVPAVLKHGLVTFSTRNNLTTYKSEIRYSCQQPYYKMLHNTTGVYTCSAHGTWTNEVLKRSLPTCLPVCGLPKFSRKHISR
T2 sequence (Q8CHN8 454-704 limits assumed): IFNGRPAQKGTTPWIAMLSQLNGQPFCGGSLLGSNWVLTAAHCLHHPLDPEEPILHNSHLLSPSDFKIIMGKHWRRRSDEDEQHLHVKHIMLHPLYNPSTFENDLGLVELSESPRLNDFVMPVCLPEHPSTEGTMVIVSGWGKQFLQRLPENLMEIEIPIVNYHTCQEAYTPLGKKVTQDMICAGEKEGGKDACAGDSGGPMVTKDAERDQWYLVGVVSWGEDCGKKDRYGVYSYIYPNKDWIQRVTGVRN
Excerpt: (§6) 4. Biochemical Rat MASP-1 and MASP-2 Assay
(§7) 4.1 Recombinant Expression and Protein Production of Recombinant Human and Rat MASP1 and MASP2 Active Proteases.
A truncated cDNA sequence of rat MASP1 encoding the fragment corresponding to the amino acids 302-704 with an C-terminal His Tag and N-terminal Ig-kappa secretion signal (SEQ ID No: 4) was subcloned into the mammalian expression vector pcDNA3.1 (Invitrogen).
(§8) The MASP1 or MASP2 expression vectors were transfected into the HEK293 (ATCC No. CRL-1573) cell line using Lipofectamine LTX® Reagent (Thermo-Fischer), as described by the manufacturer. The mature form of the recombinant rat MASP1 and MASP2 proteases were secreted into the culture medium. The MASP1 and MASP2 proteins were purified from the conditioned media by affinity chromatography on Ni-NTA Superflow resin (Qiagen) as described by the manufacturer.
4.2 Biochemical Rat MASP1 Assay.
Recombinant rat MASP1 enzyme produced in the HEK 293 cells was diluted in the reaction buffer (50 mM HEPES pH 8,0; 100 mM NaCl; 0.01% CHAPS; 0.5 mM Gluthathione) to the concentration of 4 nM and 25 μl was transferred into each single well of 384-well white microtiter plate (Greiner Bio One 781075). 1 μl of the inhibitor compound solution (dissolved in DMSO, at the corresponding concentration) or pure DMSO as a control was added to the same wells. The enzymatic reaction was initiated by addition of 25 μl of 40 μM solution of the FRET substrate Dabcyl-[…]-Glu(Edans)-NH2 (SEQ ID NO: 8); (Dabcyl—4-((4-(dimethylamino)phenyl)azo)benzoic acid; Edans—5-[(2-Aminoethyl) amino]naphthalene-1-sulfonyl; custom synthesis by Jerini Peptide Technologies, Berlin) in the reaction buffer. The microtiter plate was incubated for 60-120 min at the temperature of 32 C. The increase of fluorescence intensity was measured in appropriate fluorescence plate reader (e.g. TECAN Ultra) using excitation wavelength of 340 nm and emission wavelength of 490 nm. IC50 values were calculated from percentage of inhibition of rat […] activity as a function of test compound concentration.

[5] = biological target: T3, rat MASP2 (Rattus norvegicus, UniProt Q9JJS8); assay: Biochemical rat MASP2 assay (FRET substrate); settings: average IC50; recombinant rat MASP2, FRET substrate
T3 construct: Ig-kappa secretion signal (N, cleaved yes); made in house; host or cells: HEK293 (ATCC No. CRL-1573)
Excerpt: as §6, §7, §8
4.3 Biochemical Rat MASP2 Assay.
Recombinant rat MASP2 enzyme produced in the HEK 293 cells was diluted in the reaction buffer (50 mM HEPES pH 8,0; 100 mM NaCl; 0.01% CHAPS; 0.5 mM Gluthathione) to the concentration of 20 nM and 25 μl was transferred into each single well of 384-well white microtiter plate (Greiner Bio One 781075). 1 μl of the inhibitor compound solution (dissolved in DMSO, at the corresponding concentration) or pure DMSO as a control was added to the same wells. The enzymatic reaction was initiated by addition of 25 μl of 30 μM solution of the FRET substrate Abz-IEGRTSED-(Lys)Dnp-NH2 (SEQ ID NO: 9); (ABZ—2-aminobenzoyl; DNP_2,4-dinitrophenyl; custom synthesis by Jerini Peptide Technologies, Berlin) in the reaction buffer. The microtiter plate was incubated for 60-120 min at the temperature of 32 C. The increase of fluorescence intensity was measured in appropriate fluorescence plate reader (e.g. TECAN Ultra) using excitation wavelength of 320 nm and emission wavelength of 420 nm. IC50 values were calculated from percentage of inhibition of rat […] activity as a function of test compound concentration.

[6] = biological target: T4, human MASP2 (Homo sapiens, UniProt O00187); assay: Biochemical human MASP2 assay (FRET substrate); settings: average IC50
T4 construct: Ig-kappa secretion signal (N, cleaved yes); made in house; host or cells: HEK293 (ATCC No. CRL-1573)
Excerpt: as §3, §4
2.3 Biochemical Human MASP2 Assay
as §5, with “MASP2” for “MASP1”, “340” for “320”, “490” for “420”

T3 sequence (Q9JJS8 296-443): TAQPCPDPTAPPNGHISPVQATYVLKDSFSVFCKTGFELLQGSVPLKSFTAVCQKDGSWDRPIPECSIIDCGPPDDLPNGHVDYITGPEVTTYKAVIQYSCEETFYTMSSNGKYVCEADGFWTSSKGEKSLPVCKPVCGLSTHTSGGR
T3 sequence (Q9JJS8 444-685): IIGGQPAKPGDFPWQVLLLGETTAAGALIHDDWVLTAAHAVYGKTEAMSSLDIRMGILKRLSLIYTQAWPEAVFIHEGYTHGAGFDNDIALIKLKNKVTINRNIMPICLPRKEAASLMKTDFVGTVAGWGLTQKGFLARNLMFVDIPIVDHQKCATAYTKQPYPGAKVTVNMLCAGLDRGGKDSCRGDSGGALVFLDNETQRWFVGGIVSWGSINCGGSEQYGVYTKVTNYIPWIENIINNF
T4 sequence (O00187 297-444): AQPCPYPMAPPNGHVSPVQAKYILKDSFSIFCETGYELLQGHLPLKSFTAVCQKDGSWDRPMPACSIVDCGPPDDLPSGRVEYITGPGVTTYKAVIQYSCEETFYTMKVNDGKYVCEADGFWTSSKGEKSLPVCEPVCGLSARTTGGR
T4 sequence (O00187 445-686): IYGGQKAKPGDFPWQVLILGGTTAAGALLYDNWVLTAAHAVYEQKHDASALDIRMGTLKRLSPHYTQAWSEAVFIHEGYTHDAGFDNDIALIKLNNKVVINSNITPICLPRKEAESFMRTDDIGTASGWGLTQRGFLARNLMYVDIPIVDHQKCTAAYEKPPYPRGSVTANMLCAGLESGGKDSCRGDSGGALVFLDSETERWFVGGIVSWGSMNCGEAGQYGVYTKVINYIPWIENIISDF

Row | Compound | pIC50 [1] | pIC50 [2] | pIC50 [3] | pIC50 [4] | pIC50 [5] | pIC50 [6]
1 | AIC+SRSLP-(Oic)-I-(Pen)+IPD-OH [Example 5] | 7.99 | 6.67 |  |  |  | 
2 | AIC+SRSLP-(Oic)-I-(Pen)+IPD-NH2 [Example 27] | 8.07 | 6.84 |  |  |  | 
3 | CC[C@H](C)[C@H](NC(=O)[C@H](C)N)C(=O)N[C@H]1CSSC(C)(C)[C@@H](C(=O)N[C@H](C(=O)N2CCC[C@H]2C(=O)N[C@@H](CC(=O)O)C(=O)O)[C@@H](C)CC)NC(=O)[C@H]([C@@H](C)CC)NC(=O)[C@@H]2C[C@@H]3CCCC[C@@H]3N2C(=O)[C@@H]2CCCN2C(=O)[C@H](CC(C)C)NC(=O)[C@H](CO)NC(=O)[C@H](CCCNC(=N)N)NC(=O)[C@H](CO)NC1=O [Example 29, AIC+SRSLP-(Oic)-I-(Pen)+IPD-OH (HCl Salt)] | 8.16 | 6.71 | 8.61 | 7.98 | 7.76 | 
4 | CCC(C)[C@H](NC(=O)[C@H]1NC(=O)[C@H]([C@@H](C)CC)NC(=O)[C@@H]2C[C@@H]3CCCC[C@@H]3N2C(=O)[C@@H]2CCCN2C(=O)[C@H](CC(C)C)NC(=O)[C@H](CO)NC(=O)[C@H](CCCNC(=N)N)NC(=O)[C@H](CO)NC(=O)[C@@H](NC(=O)[C@@H](NC(=O)[C@H](C)NC)[C@@H](C)CC)CSSC1(C)C)C(=O)N1CCC[C@H]1C(=O)N[C@@H](CC(=O)NCc1ccccc1)C(N)=O (stereo in doubt) [Example 462] | 7.21 |  | 7.92 | 6.80 | 6.82 | 
5 | CC[C@H](C)[C@H](NC(=O)[C@H](C)N)C(=O)N[C@H]1CSSC(C)(C)[C@@H](C(=O)N[C@H](C(=O)N2CCC[C@H]2C(=O)N[C@@H](CC(=O)O)C(N)=O)[C@@H](C)CC)NC(=O)[C@H]([C@@H](C)CC)NC(=O)[C@@H]2CC3(CC3)CN2C(=O)[C@@H]2CCCN2C(=O)[C@H](CC(C)(C)C)NC(=O)[C@H](CO)NC(=O)[C@H](CCCNC(=N)N)NC(=O)[C@H](CO)NC1=O [Example 45, AI-C+SRS-((tBu)A)-P-((6S)-5-Azaspiro[2.4]heptane-6-carboxylic acid)-I(Pen)+IPD-NH2] (H-AICSRS[tBuAla]P[Pro(4-spirocPr)]I[Pen]IPD-NH2; disulfide 3-11) | 7.73 |  | 8.74 | 7.40 |  | 7.61
6 | CC[C@H](C)[C@H](NC(=O)[C@H](C)N)C(=O)N[C@H]1CSSC(C)(C)[C@@H](C(=O)N[C@H](C(=O)N2CCC[C@H]2C(=O)N[C@@H](CC(=O)O)C(N)=O)[C@@H](C)CC)NC(=O)[C@H]([C@@H](C)CC)NC(=O)[C@@H]2C[C@@H]3CCCC[C@@H]3N2C(=O)[C@@H]2CCCN2C(=O)[C@H](CC(C)C)NC(=O)[C@H](CO)NC(=O)[C@H](CCCNC(=N)N)NC(=O)[C@H](CO)NC1=O [Example 75, AIC+SRSLP-(Oic)-I-(Pen)+IPD-NH2] | 7.49 | 6.74 | 8.65 | 7.46 | 7.46 | 
7 | CC[C@H](C)[C@H](NC(=O)CNC)C(=O)N[C@H]1CSSC(C)(C)[C@@H](C(=O)N[C@H](C(=O)N2CCC[C@H]2C(=O)NCCOCCOCCOCCOCCOCCOCCOCCOCCOCCC(N)=O)[C@@H](C)CC)NC(=O)[C@H]([C@@H](C)CC)NC(=O)[C@@H]2CCCN2C(=O)[C@@H]2CCCN2C(=O)[C@H](CC(C)(C)C)NC(=O)[C@H](CO)NC(=O)[C@H](CCCNC(=N)N)NC(=O)[C@H](CO)NC1=O [Example 44, ((N-Me)G)-IC+SRS-((tBu)A)-PPI-(Pen)+IP-(PEG9(31 Atoms))-NH2] (H-[Sar]ICSRS[tBuAla]PPI[Pen]IP[PEG9]-NH2; disulfide 3-11) | 7.16 |  |  | 7.06 | 7.46 | 7.14
